According to ChEMBL document CHEMBL3885861, “Open TG-GATES”:

Organism: Rattus norvegicus
Assay: Open TG-GATES - Regimen: Daily Repeat
Type: toxicity, organism-based, Sprague-Dawley
Parameters: regimen Daily Repeat, gender Male, age 6 weeks
Conditions: in vivo, po, route gavage; for Bas / Eos / Fbg / Ht / MCHC / Mono / Plat / RBC / Ret / WBC / MCV: tissue Blood; for KIDNEY_L / KIDNEY_R / KIDNEY_TOTAL: tissue Kidney; for ALT / AST / CRE / DBIL / GLC / IP / K / LDH / PL / RALB / TBIL / TC / TG / TP / gamma-GTP: tissue Plasma
[1] = 100 mg/kg, 72 h, dose level Middle, time 3 day
[2] = 100 mg/kg, […], dose level Middle, time 7 day
[3] = 100 mg/kg, […], dose level Middle, time 14 day
[4] = 100 mg/kg, […], dose level Middle, time 28 day
[5] = 1000 mg/kg, 72 h, dose level High, time 3 day
[6] = 1000 mg/kg, […], dose level High, time 7 day
[7] = 1000 mg/kg, […], dose level High, time 14 day
[8] = 1000 mg/kg, […], dose level High, time 28 day

SMILES: CC(C)OC(=O)C(C)(C)Oc1ccc(C(=O)c2ccc(Cl)cc2)cc1 [FENOFIBRATE]
- TERMINAL_BW [1]: 219 g
- Bas [1]: 0.2%
- Eos [1]: 1%
- Fbg [1]: 242.4 mg/dL
- Ht [1]: 40.5%
- MCHC [1]: 32.9%
- Mono [1]: 3.4%
- Plat [1]: 110.8 x10_4/uL
- RBC [1]: 619.6 x10_4/ul
- Ret [1]: 6.7%
- WBC [1]: 92.3 x10_2/uL
- KIDNEY_L [1]: 1 g
- KIDNEY_R [1]: 1 g
- KIDNEY_TOTAL [1]: 1.9 g
- ALT [1]: 52 IU/L
- AST [1]: 77.6 IU/L
- CRE [1]: 0.2 mg/dL
- DBIL [1]: 0.012 mg/dL
- GLC [1]: 184.2 mg/dL
- IP [1]: 7.5 mg/dL
- K [1]: 4.1 meq/L
- LDH [1]: 90 IU/L
- PL [1]: 118.6 mg/dL
- RALB [1]: 2.6 g/dL
- TBIL [1]: 0.034 mg/dL
- TC [1]: 58.6 mg/dL
- TG [1]: 41.6 mg/dL
- TP [1]: 5.5 g/dL
- gamma-GTP [1]: 1.2 IU/L
- TERMINAL_BW [2]: 251.5 g
- TERMINAL_BW [3]: 311 g
- TERMINAL_BW [4]: 352.5 g
- Bas [2]: 0.2%
- Eos [2]: 1%
- Fbg [2]: 232.2 mg/dL
- Ht [2]: 40.3%
- MCHC [2]: 32.4%
- Mono [2]: 4%
- Plat [2]: 127.1 x10_4/uL
- RBC [2]: 650.8 x10_4/ul
- Ret [2]: 5.7%
- WBC [2]: 98.5 x10_2/uL
- Bas [3]: 0%
- Eos [3]: 0.8%
- Fbg [3]: 230 mg/dL
- Ht [3]: 40.9%
- MCHC [3]: 32.9%
- Mono [3]: 3.2%
- Plat [3]: 131.7 x10_4/uL
- RBC [3]: 660.8 x10_4/ul
- Ret [3]: 5.1%
- WBC [3]: 106.3 x10_2/uL
- Bas [4]: 0.8%
- Eos [4]: 1.2%
- Fbg [4]: 207.2 mg/dL
- Ht [4]: 44.3%
- MCHC [4]: 33.6%
- MCV [4]: 56.8 fL
- Mono [4]: 3.2%
- Plat [4]: 107.6 x10_4/uL
- RBC [4]: 780.8 x10_4/ul
- Ret [4]: 2.4%
- WBC [4]: 148.1 x10_2/uL
- KIDNEY_L [2]: 1.1 g
- KIDNEY_R [2]: 1.1 g
- KIDNEY_TOTAL [2]: 2.2 g
- KIDNEY_L [3]: 1.3 g
- KIDNEY_R [3]: 1.3 g
- KIDNEY_TOTAL [3]: 2.6 g
- KIDNEY_L [4]: 1.4 g
- KIDNEY_R [4]: 1.4 g
- KIDNEY_TOTAL [4]: 2.8 g
- ALT [2]: 41.2 IU/L
- AST [2]: 67.8 IU/L
- CRE [2]: 0.2 mg/dL
- DBIL [2]: 0.012 mg/dL
- GLC [2]: 186.8 mg/dL
- IP [2]: 8 mg/dL
- K [2]: 4.3 meq/L
- LDH [2]: 126.2 IU/L
- PL [2]: 119.8 mg/dL
- RALB [2]: 2.8 g/dL
- TBIL [2]: 0.028 mg/dL
- TC [2]: 55.6 mg/dL
- TG [2]: 47.4 mg/dL
- TP [2]: 5.9 g/dL
- gamma-GTP [2]: 1 IU/L
- ALT [3]: 43 IU/L
- AST [3]: 69 IU/L
- CRE [3]: 0.2 mg/dL
- DBIL [3]: 0.014 mg/dL
- GLC [3]: 192.8 mg/dL
- IP [3]: 6.9 mg/dL
- K [3]: 4.1 meq/L
- LDH [3]: 106.8 IU/L
- PL [3]: 135.2 mg/dL
- RALB [3]: 2.8 g/dL
- TBIL [3]: 0.026 mg/dL
- TC [3]: 57.8 mg/dL
- TG [3]: 78 mg/dL
- TP [3]: 6 g/dL
- gamma-GTP [3]: 1 IU/L
- ALT [4]: 47.6 IU/L
- AST [4]: 69.2 IU/L
- CRE [4]: 0.2 mg/dL
- DBIL [4]: 0.016 mg/dL
- GLC [4]: 179 mg/dL
- IP [4]: 7.6 mg/dL
- K [4]: 3.8 meq/L
- LDH [4]: 110.8 IU/L
- PL [4]: 129.8 mg/dL
- RALB [4]: 3 g/dL
- TBIL [4]: 0.036 mg/dL
- TC [4]: 55 mg/dL
- TG [4]: 60.2 mg/dL
- TP [4]: 6.5 g/dL
- gamma-GTP [4]: 1.2 IU/L
- TERMINAL_BW [5]: 215.9 g
- Bas [5]: 0.4%
- Eos [5]: 1%
- Fbg [5]: 208.2 mg/dL
- Ht [5]: 39.5%
- MCHC [5]: 33%
- Mono [5]: 3.6%
- Plat [5]: 105.8 x10_4/uL
- RBC [5]: 610.6 x10_4/ul
- Ret [5]: 5.6%
- WBC [5]: 91.7 x10_2/uL
- KIDNEY_L [5]: 0.9 g
- KIDNEY_R [5]: 1 g
- KIDNEY_TOTAL [5]: 1.9 g
- ALT [5]: 51.4 IU/L
- AST [5]: 83.8 IU/L
- CRE [5]: 0.2 mg/dL
- DBIL [5]: 0.022 mg/dL
- GLC [5]: 176.8 mg/dL
- IP [5]: 7.3 mg/dL
- K [5]: 4.3 meq/L
- LDH [5]: 105.8 IU/L
- PL [5]: 129.2 mg/dL
- RALB [5]: 2.6 g/dL
- TBIL [5]: 0.048 mg/dL
- TC [5]: 57 mg/dL
- TG [5]: 33.6 mg/dL
- TP [5]: 5.4 g/dL
- gamma-GTP [5]: 1 IU/L
- TERMINAL_BW [6]: 248.7 g
- TERMINAL_BW [7]: 269.5 g
- TERMINAL_BW [8]: 320.8 g
- Bas [6]: 0%
- Eos [6]: 1%
- Fbg [6]: 222.2 mg/dL
- Ht [6]: 39.1%
- MCHC [6]: 32.3%
- Mono [6]: 3.4%
- Plat [6]: 147.3 x10_4/uL
- RBC [6]: 612.2 x10_4/ul
- Ret [6]: 5.8%
- WBC [6]: 113.4 x10_2/uL
- Bas [7]: 0.4%
- Eos [7]: 1%
- Fbg [7]: 192.8 mg/dL
- Ht [7]: 39.9%
- MCHC [7]: 33.3%
- MCV [7]: 58.7 fL
- Mono [7]: 3.4%
- Plat [7]: 135.5 x10_4/uL
- RBC [7]: 679.4 x10_4/ul
- Ret [7]: 5.1%
- WBC [7]: 149.7 x10_2/uL
- Bas [8]: 0.4%
- Eos [8]: 1.2%
- Fbg [8]: 194.2 mg/dL
- Ht [8]: 40.9%
- MCHC [8]: 33.4%
- MCV [8]: 57.2 fL
- Mono [8]: 3.4%
- Plat [8]: 117.4 x10_4/uL
- RBC [8]: 716 x10_4/ul
- Ret [8]: 3.9%
- WBC [8]: 132.1 x10_2/uL
- KIDNEY_L [6]: 1.1 g
- KIDNEY_R [6]: 1.1 g
- KIDNEY_TOTAL [6]: 2.2 g
- KIDNEY_L [7]: 1.2 g
- KIDNEY_R [7]: 1.2 g
- KIDNEY_TOTAL [7]: 2.4 g
- KIDNEY_L [8]: 1.4 g
- KIDNEY_R [8]: 1.4 g
- KIDNEY_TOTAL [8]: 2.8 g
- ALT [6]: 45.8 IU/L
- AST [6]: 80.6 IU/L
- CRE [6]: 0.2 mg/dL
- DBIL [6]: 0.018 mg/dL
- GLC [6]: 178.8 mg/dL
- IP [6]: 7.4 mg/dL
- K [6]: 4.4 meq/L
- LDH [6]: 122.6 IU/L
- PL [6]: 142 mg/dL
- RALB [6]: 3 g/dL
- TBIL [6]: 0.034 mg/dL
- TC [6]: 65.8 mg/dL
- TG [6]: 38 mg/dL
- TP [6]: 6.1 g/dL
- gamma-GTP [6]: 1 IU/L
- ALT [7]: 70 IU/L
- AST [7]: 160.6 IU/L
- CRE [7]: 0.2 mg/dL
- DBIL [7]: 0.022 mg/dL
- GLC [7]: 170.2 mg/dL
- IP [7]: 6.6 mg/dL
- K [7]: 4.1 meq/L
- LDH [7]: 226.2 IU/L
- PL [7]: 138 mg/dL
- RALB [7]: 2.9 g/dL
- TBIL [7]: 0.052 mg/dL
- TC [7]: 50.6 mg/dL
- TG [7]: 45.4 mg/dL
- TP [7]: 6 g/dL
- gamma-GTP [7]: 1 IU/L
- ALT [8]: 55.8 IU/L
- AST [8]: 132 IU/L
- CRE [8]: 0.2 mg/dL
- DBIL [8]: 0.024 mg/dL
- GLC [8]: 176 mg/dL
- IP [8]: 7.3 mg/dL
- K [8]: 3.7 meq/L
- LDH [8]: 205.2 IU/L
- PL [8]: 139.8 mg/dL
- RALB [8]: 2.9 g/dL
- TBIL [8]: 0.06 mg/dL
- TC [8]: 62.4 mg/dL
- TG [8]: 47.6 mg/dL
- TP [8]: 6.2 g/dL
- gamma-GTP [8]: 1.2 IU/L
